IC50 data for 34 compounds are collected here from patent US10828301B2, “2,4-pyrimidinediamine compounds and their uses” (Rigel Pharmaceuticals, Inc, priority 2002, dated 2020).

Each structure is given as a SMILES string.

In assay [1] the test system is cultured human mast cells (CHMC). The assay is described as follows: CHMC low cell density ionomycin activation: tryptase assay. The class given is cell-based. To be noted: Homo sapiens, Mast cell, Low Density CHMC, ionomycin activation, tryptase readout; read-out: CHMC Ionomycin Tryptase.
For assay [2] the test system is unchanged. As to the kind of experiment: CHMC low cell density IgE activation: tryptase and LTC4 assays. Format: cell-based. To be noted: Homo sapiens, Mast cell, Low Density CHMC, anti-IgE activation, tryptase readout; read-out: CHMC anti-IgE Tryptase. The gist of the method: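 Degranulation measured after 30 min anti-IgE challenge at 37° C of CHMC plated at 1000-1500 cells/well following 1 h preincubation. Readouts: LTC4 by ELISA on donor-specific diluted supernatants, and tryptase activity from a 30 min room-temperature substrate reaction.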

Regarding `COC(=O)c1cc2cc(Nc3ncc(F)c(Nc4cccc(C(C)(C)C)c4)n3)ccc2o1` [Compound R940281, N4-(3-tert-Butylphenyl)-5-fluoro-N2-(2-methoxycarbonylbenzofur-5-yl)-2,4-pyrimidinediamine], the IC50 in assay [1] worked out at 5.53 µM; in assay [2], 0.525 µM.

Take `COC(=O)c1cc2cc(Nc3ncc(F)c(Nc4cccc(C(C)C)c4)n3)ccc2o1` [Compound R940283, 5-fluoro-N4-(3-isopropylphenyl)-N2-(2-methoxycarbonylbenzofur-5-yl)-2,4-pyrimidinediamine]: the IC50 in assay [1] is 4.98 µM; in assay [2] it was 0.553 µM.

`CNC(=O)c1cc2cc(Nc3ncc(F)c(Nc4cccc(C(C)(C)C)c4)n3)ccc2o1` [Compound R940291, N4-(3-tert-Butylphenyl)-5-fluoro-N2-[2-(N-methylamino)carbonylbenzofur-5-yl]-2,4-pyrimidinediamine]: the IC50 in assay [1] was > 10 µM; in assay [2], 0.396 µM.

As for `CC(C)c1cccc(Nc2ncc(F)c(Nc3cccc(C(C)C)c3)n2)c1` [Compound R940297, N2,N4-Bis(3-isopropylphenyl)-5-fluoro-2,4-pyrimidinediamine], the IC50 was 10 µM in assay [1] and 3.46 µM in assay [2].

With `COC(=O)c1cc(Nc2ncc(F)c(Nc3cccc(O)c3)n2)ccc1OC` [Compound R940301, 5-Fluoro-N4-(3-hydroxyphenyl)-N2-(3-methyloxycarbonyl-4-methoxyphenyl)-2,4-pyrimidinediamine], the IC50 was > 10 µM in assay [1] and 1.98 µM in assay [2].

In the case of `CNC(=O)c1cc(Nc2nc(NC)ncc2F)ccc1OC` [Compound R940304, 5-Fluoro-N4-(3-methylaminocarbonyl-4-methoxyphenyl)-N2-methyl-2,4-pyrimidinediamine], the IC50 in assay [1] and in assay [2] was > 10 µM throughout.

Regarding `COC(=O)c1ccc(Nc2ncc(F)c(Nc3ccc(C(=O)OC)cc3)n2)cc1` [Compound R945034, N2,N4-Bis(4-methoxycarbonylphenyl)-5-fluoro-2,4-pyrimidinediamine], the IC50 in assay [1] is > 10 µM; in assay [2], 1.85 µM.

Regarding `COC(=O)c1cccc(Nc2ncc(F)c(Nc3cccc(C(=O)OC)c3)n2)c1` [Compound R945035, N2,N4-Bis(3-methoxycarbonylphenyl)-5-fluoro-2,4-pyrimidinediamine], the IC50 in assay [1] and in assay [2] was > 10 µM in each case.

With `O=C(O)c1cccc(Nc2ncc(F)c(Nc3cccc(C(=O)O)c3)n2)c1` [Compound R945036, N2,N4-Bis(3-carboxyphenyl)-5-fluoro-2,4-pyrimidinediamine], the IC50 in assay [1] and in assay [2] was > 10 µM throughout.

For the compound `O=C(O)c1ccc(Nc2ncc(F)c(Nc3ccc(C(=O)O)cc3)n2)cc1` [Compound R945037, N2,N4-Bis(4-carboxyphenyl)-5-fluoro-2,4-pyrimidinediamine], the IC50 in assay [1] and in assay [2] was > 10 µM in each case.

In the case of `Cc1c(O)cccc1Nc1ncc(F)c(Nc2cccc(O)c2C)n1` [Compound R945038, N2,N4-Bis(3-hydroxy-2-methylphenyl)-5-fluoro-2,4-pyrimidinediamine], the IC50 in assay [1] and in assay [2] was > 10 µM each time.

Consider `CCNC(=O)Nc1ccc(Nc2ncc(F)c(Nc3ccc(NC(=O)NCC)cc3)n2)cc1` [Compound R945040, N2,N4-Bis[4-(ethylaminocarbonylamino)phenyl]-5-fluoro-2,4-pyrimidinediamine], for which the IC50 in assay [1] and in assay [2] was > 10 µM throughout.

For the compound `O=C(O)c1cc(Nc2ncc(F)c(Nc3ccc(O)c(C(=O)O)c3)n2)ccc1O` [Compound R945041, N2,N4-Bis(3-carboxy-4-hydroxyphenyl)-5-fluoro-2,4-pyrimidinediamine], the IC50 in assay [1] and in assay [2] was > 10 µM each time.

Regarding `COC(=O)c1cc(Nc2ncc(F)c(Nc3ccc(O)c(C(=O)OC)c3)n2)ccc1O` [Compound R945043, N2,N4-Bis(4-hydroxy-3-methoxycarbonylphenyl)-5-fluoro-2,4-pyrimidinediamine], the IC50 in assay [1] and in assay [2] was > 10 µM throughout.

Regarding `CCNC(=O)Nc1cccc(Nc2ncc(F)c(Nc3cccc(NC(=O)NCC)c3)n2)c1` [Compound R945045, N2,N4-Bis[3-(ethylaminocarbonylamino)phenyl]-5-fluoro-2,4-pyrimidinediamine], the IC50 in assay [1] and in assay [2] was > 10 µM throughout.

With `N#Cc1cccc(Nc2ncc(F)c(Nc3cccc(C#N)c3)n2)c1` [Compound R945051, N2,N4-Bis(3-cyanophenyl)-5-fluoro-2,4-pyrimidinediamine], the IC50 in assay [1] was > 10 µM; in assay [2], 0.95 µM.

For `COC(=O)c1ccc(Nc2ncc(F)c(Nc3ccc(C(=O)OC)c(O)c3)n2)cc1O` [Compound R945056, N2,N4-Bis[3-hydroxy-4-(methoxycarbonyl)phenyl]-5-fluoro-2,4-pyrimidinediamine], the figures for the IC50 in assay [1] and in assay [2] were > 10 µM and 10 µM, respectively.

`N#Cc1ccc(Nc2ncc(F)c(Nc3ccc(C#N)cc3)n2)cc1` [Compound R945057, N2,N4-Bis(4-cyanophenyl)-5-fluoro-2,4-pyrimidinediamine]: the IC50 in assay [1] was > 10 µM; in assay [2] it was 10 µM.

For `O=C(O)c1ccc(Nc2ncc(F)c(Nc3ccc(C(=O)O)c(O)c3)n2)cc1O` [Compound R945061, N2,N4-Bis(3-hydroxy-4-carboxyphenyl)-5-fluoro-2,4-pyrimidinediamine], the IC50 is > 10 µM in assay [1] and 10 µM in assay [2].

With `COC(=O)c1ccc(Nc2ncc(F)c(Nc3ccc(C(=O)OC)c(OC)c3)n2)cc1OC` [Compound R945065, N2,N4-Bis(3-methoxy-4-methoxycarbonylphenyl)-5-fluoro-2,4-pyrimidinediamine], the IC50 in assay [1] was > 10 µM; in assay [2], 1.43 µM.

Take `N#Cc1cccc(Nc2nc(Nc3cccc(O)c3)ncc2F)c1` [Compound R945109, N4-(3-Cyanophenyl)-5-fluoro-N2-(3-hydroxyphenyl)-2,4-pyrimidinediamine]: the IC50 was > 10 µM in assay [1] and 1.02 µM in assay [2].

Regarding `Oc1cccc(Nc2nc(NCCc3c[nH]c4ccccc34)ncc2F)c1` [Compound R945117, 5-Fluoro-N4-(3-hydroxyphenyl)-N2-[2-(indol-3-yl)ethyl]-2,4-pyrimidinediamine], the figures for the IC50 in assay [1] and in assay [2] were > 10 µM and 4.08 µM, respectively.

Turning to `OCCOc1ccc(Nc2ncc(F)c(Nc3ccc4c(c3)OCCO4)n2)cc1` [Compound R945144, N4-(3,4-Ethylenedioxyphenyl)-5-fluoro-N2-[4-(2-hydroxyethyloxy)phenyl]-2,4-pyrimidinediamine], the IC50 in assay [1] is > 10 µM; in assay [2] it was 0.244 µM.

Turning to `Fc1cnc(NCc2csc3ccccc23)nc1NCc1csc2ccccc12` [Compound R945145, N2,N4-Bis(benzothiophen-3-ylmethyl)-5-fluoro-2,4-pyrimidinediamine], the IC50 in assay [1] and in assay [2] was > 10 µM in each case.

`Oc1cccc(Nc2ncc(F)c(NCc3csc4ccccc34)n2)c1` [Compound R945146, N4-(Benzothiophen-3-ylmethyl)-5-fluoro-N2-(3-hydroxyphenyl)-2,4-pyrimidinediamine]: the values for the IC50 in assay [1] and in assay [2] were > 10 µM and 3.76 µM, respectively.

On to `Oc1cccc(Nc2ncc(F)c(NCc3cccnc3)n2)c1` [Compound R945147, 5-Fluoro-N2-(3-hydroxyphenyl)-N4-(3-pyridylmethyl)-2,4-pyrimidinediamine], for which the IC50 was > 10 µM in assay [1] and 3.55 µM in assay [2].

With `Cc1cc(CNc2nc(Nc3cccc(O)c3)ncc2F)c(C)o1` [Compound R945151, N4-[(2,5-Dimethyl-3-furyl)methyl]-5-fluoro-N2-(3-hydroxyphenyl)-2,4-pyrimidinediamine], the IC50 in assay [1] is > 10 µM; in assay [2], 4.07 µM.

Turning to `Fc1cnc(Nc2ccc(N3CCN(Cc4ccccc4)CC3)cc2)nc1Nc1ccc(N2CCN(Cc3ccccc3)CC2)cc1` [Compound R945152, N2,N4-Bis[4-(N-benzylpiperazino)phenyl]-5-fluoro-2,4-pyrimidinediamine], the values for the IC50 in assay [1] and in assay [2] were > 10 µM and 6.94 µM, respectively.

With `Fc1cnc(Nc2ccc3c(c2)OCCO3)nc1Nc1ccc(N2CCN(Cc3ccccc3)CC2)cc1` [Compound R945155, N4-[4-(N-Benzylpiperazino)phenyl]-N2-(3,4-ethylenedioxyphenyl)-5-fluoro-2,4-pyrimidinediamine], the IC50 in assay [1] was > 10 µM; in assay [2] it was 1.88 µM.

For the compound `Cc1cc(CNc2ncc(F)c(Nc3cccc(O)c3)n2)c(C)o1` [Compound R945162, N2-[(2,5-Dimethyl-3-furyl)methyl]-5-fluoro-N4-(3-hydroxyphenyl)-2,4-pyrimidinediamine], the IC50 in assay [1] and in assay [2] was > 10 µM throughout.

As for `Fc1cnc(Nc2ccc(N3CCN(Cc4ccccc4)CC3)cc2)nc1Nc1ccc2c(c1)OCCO2` [Compound R945163, N2-[4-(N-Benzylpiperazino)phenyl]-N4-(3,4-ethylenedioxyphenyl)-5-fluoro-2,4-pyrimidinediamine], the results for the IC50 in assay [1] and in assay [2] were 4.25 µM and 0.922 µM, respectively.

For the compound `Oc1cccc(Nc2nc(NCc3csc4ccccc34)ncc2F)c1` [Compound R945164, N2-(Benzothiophen-3-ylmethyl)-5-fluoro-N4-(3-hydroxyphenyl)-2,4-pyrimidinediamine], the IC50 in assay [1] is > 10 µM; in assay [2] it was 10 µM.

`Oc1cccc(Nc2nc(NCc3cccnc3)ncc2F)c1` [Compound R945165, 5-Fluoro-N4-(3-hydroxyphenyl)-N2-(3-pyridylmethyl)-2,4-pyrimidinediamine]: the IC50 in assay [1] and in assay [2] was > 10 µM throughout.

As for `Oc1cccc(Nc2nc(NCc3ccccn3)ncc2F)c1` [Compound R945166, 5-Fluoro-N4-(3-hydroxyphenyl)-N2-(2-pyridylmethyl)-2,4-pyrimidinediamine], the IC50 in assay [1] and in assay [2] was > 10 µM in each case.
